Literature values as cited in patent publication US10517911B2, “Manufacturing methods, compositions, and medical applications of orally administered cannabis pharmaceuticals using representative/total/complete cannabis extractions (cannabis infused pills)” (priority 2016, dated 2019).

Experiments:
[1] = system: methicillin-resistant Staphylococcus aureus (MRSA)
COX-1 = COX-1 (Homo sapiens, UniProt P23219)
COX-2 = molecular target: T1, COX-2 (Homo sapiens, UniProt P35354)
T1 sequence (P35354 18-604): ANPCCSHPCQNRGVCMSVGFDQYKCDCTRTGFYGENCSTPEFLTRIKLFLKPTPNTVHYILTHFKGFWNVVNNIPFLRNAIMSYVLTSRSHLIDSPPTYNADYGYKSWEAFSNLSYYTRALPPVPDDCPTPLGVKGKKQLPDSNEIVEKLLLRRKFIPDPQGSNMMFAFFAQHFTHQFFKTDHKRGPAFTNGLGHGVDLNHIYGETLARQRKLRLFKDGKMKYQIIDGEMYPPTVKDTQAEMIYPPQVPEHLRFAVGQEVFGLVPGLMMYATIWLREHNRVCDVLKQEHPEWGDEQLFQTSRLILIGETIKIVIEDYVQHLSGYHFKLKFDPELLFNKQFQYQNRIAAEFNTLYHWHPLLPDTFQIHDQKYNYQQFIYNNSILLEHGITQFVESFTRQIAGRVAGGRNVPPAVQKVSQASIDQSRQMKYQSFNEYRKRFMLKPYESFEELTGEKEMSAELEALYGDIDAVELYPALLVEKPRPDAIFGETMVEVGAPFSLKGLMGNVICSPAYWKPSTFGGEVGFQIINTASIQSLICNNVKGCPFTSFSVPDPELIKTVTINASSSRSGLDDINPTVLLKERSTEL

Sequence of COX-1 (P23219 24-599): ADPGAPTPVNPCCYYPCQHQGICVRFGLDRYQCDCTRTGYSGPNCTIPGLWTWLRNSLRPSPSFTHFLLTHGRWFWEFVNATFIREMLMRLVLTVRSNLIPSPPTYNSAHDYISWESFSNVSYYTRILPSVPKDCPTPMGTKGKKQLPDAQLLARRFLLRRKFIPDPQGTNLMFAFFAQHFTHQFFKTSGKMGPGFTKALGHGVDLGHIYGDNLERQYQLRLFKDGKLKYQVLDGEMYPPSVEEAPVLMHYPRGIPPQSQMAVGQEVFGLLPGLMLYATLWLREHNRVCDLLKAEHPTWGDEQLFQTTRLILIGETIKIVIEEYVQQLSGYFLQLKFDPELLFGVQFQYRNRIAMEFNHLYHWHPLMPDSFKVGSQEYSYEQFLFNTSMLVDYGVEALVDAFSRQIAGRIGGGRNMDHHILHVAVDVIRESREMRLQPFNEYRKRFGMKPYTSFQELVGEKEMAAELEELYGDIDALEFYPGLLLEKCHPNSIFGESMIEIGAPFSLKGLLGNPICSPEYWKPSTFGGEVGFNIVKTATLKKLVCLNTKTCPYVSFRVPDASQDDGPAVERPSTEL

C=C(C)[C@@H]1CCC(C)=C[C@H]1c1c(O)cc(CCCCC)cc1O [Cannabidiol]
activity against methicillin-resistant Staphylococcus aureus (MRSA) [1]: powerful activity

CCCCCc1cc(O)c2c(c1)OC(C)(C)c1ccc(C)cc1-2 [Cannabinol]
activity against methicillin-resistant Staphylococcus aureus (MRSA) [1]: powerful activity

CCCCCc1cc(O)c2c(c1)OC(C)(C)[C@@H]1CCC(C)=C[C@@H]21 [Tetrahydrocannabinol I, Tetrahydrocannabinol]
anti-inflammatory effectiveness relative to aspirin (times as effective as aspirin): 20 times | anti-inflammatory effectiveness relative to hydrocortisone (times as effective as hydrocortisone): 2 times | COX-1 inhibition (COX-1): no COX-1 or COX-2 inhibition | COX-2 inhibition (COX-2): no COX-1 or COX-2 inhibition
